Here are results for one compound from paper PMC6934184, “Selective DNA-PKcs inhibition extends the therapeutic index of localized radiotherapy and chemotherapy” (The Journal of Clinical Investigation, 2019).

For this assay, the target named is T1, NUAK1 (ARK5) (Homo sapiens, UniProt O60285).
T1 construct: purchased Thermo Fisher Scientific (Life Technologies) SelectScreen
Description: SelectScreen Adapta. In kind it is biochemical. As to the method: The in vitro kinase selectivity of NU5455 was determined using the SelectScreen Broad Assay Panel (Thermo Fisher Scientific) involving activity and binding assays (Supplemental Table 1). […] Class IA PI3Ks were measured using the p85α subunit.
Kinase [ATP] % Assay Kinase [ATP] % Assay Kinase [ATP] % Assay Kinase [ATP] % Assay […]
SNF1LK2 Km app 26.6 Z MINK1 Km app 4.6 Z NUAK1 (ARK5) Km app 1.2 A AMPK (A2/B2/G2) n/a -2.6 L […]
SGK (SGK1) Km app 8.5 Z MAP4K2 (GCK) Km app 2.7 Z TLK2 n/a -0.3 L STK38 (NDR) n/a -5.9 L
MERTK (cMER) Km app 8.3 Z CDK2/cyclin A Km app 2.7 Z TGFBR1 (ALK5) n/a -0.4 L MATK (HYL) Km app -6.3 Z
FYN Km app 8.3 Z EPHA1 Km app 2.7 Z CLK3 Km app -0.5 Z ABL1 E255K Km app -6.6 Z
TEC n/a 8.1 L CDK2/cyclin E1 n/a 2.7 L MAP3K14 (NIK) n/a -0.5 L STK17A (DRAK1) n/a -6.6 L
KIT V654A n/a 8.1 L TESK2 n/a 2.7 L AKT3 (PKB gamma) Km app -0.5 Z JAK2 JH1 JH2 Km app -6.7 Z
ROS1 Km app 8.0 Z SPHK1 Km app 2.7 A MAP3K9 (MLK1) Km app -0.5 Z PRKACB (PRKAC beta) n/a -6.8 L
FGFR3 K650E Km app 7.9 Z AMPK A2/B1/G1 Km app 2.6 Z IKBKB (IKK beta) Km app -0.6 Z PDGFRA (PDGFR alpha) Km app -6.8 Z
RAF1 (cRAF) Y340D Y341D 100 7.9 Z DYRK3 Km app 2.6 Z CAMK2A (CaMKII alpha) Km app -0.6 Z NEK9 Km app -7.2 Z
PI4KA (PI4K alpha) 10 7.8 A CSNK1D (CK1 delta) Km app 2.6 Z PRKCB1 (PKC beta I) Km app -0.7 Z PDK1 Km app -7.3 Z
HIPK2 Km app 7.8 Z ACVR2A n/a 2.5 L TTK n/a -0.7 L RPS6KB1 (p70S6K) Km app -7.8 Z […]

SMILES strings stand for the structures.

T1 sequence (O60285 whole entry): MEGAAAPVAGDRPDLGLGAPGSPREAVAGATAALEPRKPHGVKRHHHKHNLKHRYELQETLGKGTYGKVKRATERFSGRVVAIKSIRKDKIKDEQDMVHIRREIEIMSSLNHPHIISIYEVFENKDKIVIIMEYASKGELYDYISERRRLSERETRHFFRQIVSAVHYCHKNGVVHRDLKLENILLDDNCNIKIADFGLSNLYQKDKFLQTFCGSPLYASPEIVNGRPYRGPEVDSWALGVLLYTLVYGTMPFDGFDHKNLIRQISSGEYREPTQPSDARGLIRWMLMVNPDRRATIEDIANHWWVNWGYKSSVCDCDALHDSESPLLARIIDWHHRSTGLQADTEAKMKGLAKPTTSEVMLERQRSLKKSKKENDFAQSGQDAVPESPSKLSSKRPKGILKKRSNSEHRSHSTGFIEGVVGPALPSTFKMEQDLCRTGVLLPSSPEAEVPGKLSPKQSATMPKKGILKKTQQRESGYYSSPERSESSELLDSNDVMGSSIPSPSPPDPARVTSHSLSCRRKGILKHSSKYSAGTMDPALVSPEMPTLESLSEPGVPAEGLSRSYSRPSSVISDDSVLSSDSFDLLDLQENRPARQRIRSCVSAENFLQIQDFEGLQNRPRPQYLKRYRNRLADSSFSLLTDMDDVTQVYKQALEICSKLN

Broadly, the inhibition is the share of the control response that was lost under treatment. The low end stands for little suppression, the high end for strong suppression. For `CN(C(=O)CN1CCOCC1)c1ccc2sc3c(-c4cccc5c(=O)cc(N6CC7CCC(C6)O7)oc45)cccc3c2c1` [NU5455], testing at 1 µM gave an inhibition of 1.2%.
